Test results taken from ChEMBL document CHEMBL1909046, “DrugMatrix in vitro pharmacology data”.

Legend:
[1] = DRUGMATRIX: Phosphodiesterase PDE4 enzyme inhibition (substrate: [3H]cAMP + cAMP); details: u-937; Not Active = under 50% inhibition at 10 µM
Vasopressin V1a receptor = Vasopressin V1a receptor (Homo sapiens, UniProt P37288); format: cell membranes, Membrane; details: hek293; further: in other assays of this panel Not Active means under 50% inhibition at 10 µM
[2] = target: T1, Cholecystokinin receptor type A (Homo sapiens, UniProt P32238); format: cell membranes, Membrane; details: 1321-n1; further: in other assays of this panel Not Active means under 50% inhibition at 10 µM
T1 sequence (P32238 whole entry): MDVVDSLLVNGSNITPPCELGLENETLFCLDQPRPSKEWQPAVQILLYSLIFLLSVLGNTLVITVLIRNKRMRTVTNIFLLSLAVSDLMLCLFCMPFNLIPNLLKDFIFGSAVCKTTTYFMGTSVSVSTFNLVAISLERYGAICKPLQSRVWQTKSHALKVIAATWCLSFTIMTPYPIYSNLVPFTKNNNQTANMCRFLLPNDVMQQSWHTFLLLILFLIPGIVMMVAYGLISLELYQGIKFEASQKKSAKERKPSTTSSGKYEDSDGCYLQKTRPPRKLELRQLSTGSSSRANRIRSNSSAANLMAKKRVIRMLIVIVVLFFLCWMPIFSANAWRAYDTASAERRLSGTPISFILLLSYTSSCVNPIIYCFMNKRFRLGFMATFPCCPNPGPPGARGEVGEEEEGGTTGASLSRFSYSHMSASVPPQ

[3] = target: T2, C-X-C chemokine receptor type 2 (Homo sapiens, UniProt P25025); format: cell membranes, Membrane; details: cho-k1; further: in other assays of this panel Not Active means under 50% inhibition at 10 µM
T2 sequence (P25025 whole entry): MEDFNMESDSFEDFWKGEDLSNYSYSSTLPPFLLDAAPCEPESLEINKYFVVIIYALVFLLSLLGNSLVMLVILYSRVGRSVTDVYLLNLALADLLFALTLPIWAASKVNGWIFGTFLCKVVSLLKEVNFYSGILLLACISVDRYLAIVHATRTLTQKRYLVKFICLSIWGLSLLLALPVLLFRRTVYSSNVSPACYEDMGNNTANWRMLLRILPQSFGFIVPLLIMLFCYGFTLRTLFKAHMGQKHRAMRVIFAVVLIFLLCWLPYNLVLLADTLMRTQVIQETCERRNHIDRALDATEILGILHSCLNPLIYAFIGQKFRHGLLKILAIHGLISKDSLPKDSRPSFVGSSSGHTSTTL

Endothelin-1 receptor = target: T3, Endothelin-1 receptor (Homo sapiens, UniProt P25101); format: cell membranes, Membrane; details: cho-k1; further: in other assays of this panel Not Active means under 50% inhibition at 10 µM
T3 sequence (P25101 whole entry): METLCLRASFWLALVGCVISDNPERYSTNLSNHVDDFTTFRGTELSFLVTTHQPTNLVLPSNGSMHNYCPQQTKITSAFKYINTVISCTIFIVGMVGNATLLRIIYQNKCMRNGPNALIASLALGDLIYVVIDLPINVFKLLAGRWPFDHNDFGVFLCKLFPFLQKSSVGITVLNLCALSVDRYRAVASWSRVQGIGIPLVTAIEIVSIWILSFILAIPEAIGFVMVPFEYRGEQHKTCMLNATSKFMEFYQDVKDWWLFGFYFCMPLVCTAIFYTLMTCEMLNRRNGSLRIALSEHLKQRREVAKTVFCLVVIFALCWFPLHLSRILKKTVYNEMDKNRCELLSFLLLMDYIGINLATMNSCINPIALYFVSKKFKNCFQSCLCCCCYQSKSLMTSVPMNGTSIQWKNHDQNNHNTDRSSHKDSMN

[4] = target: T4, Angiotensin-converting enzyme (Oryctolagus cuniculus, UniProt P12822); assay: biochemical; format: tissue-based, Lung
T4 sequence (P12822 whole entry): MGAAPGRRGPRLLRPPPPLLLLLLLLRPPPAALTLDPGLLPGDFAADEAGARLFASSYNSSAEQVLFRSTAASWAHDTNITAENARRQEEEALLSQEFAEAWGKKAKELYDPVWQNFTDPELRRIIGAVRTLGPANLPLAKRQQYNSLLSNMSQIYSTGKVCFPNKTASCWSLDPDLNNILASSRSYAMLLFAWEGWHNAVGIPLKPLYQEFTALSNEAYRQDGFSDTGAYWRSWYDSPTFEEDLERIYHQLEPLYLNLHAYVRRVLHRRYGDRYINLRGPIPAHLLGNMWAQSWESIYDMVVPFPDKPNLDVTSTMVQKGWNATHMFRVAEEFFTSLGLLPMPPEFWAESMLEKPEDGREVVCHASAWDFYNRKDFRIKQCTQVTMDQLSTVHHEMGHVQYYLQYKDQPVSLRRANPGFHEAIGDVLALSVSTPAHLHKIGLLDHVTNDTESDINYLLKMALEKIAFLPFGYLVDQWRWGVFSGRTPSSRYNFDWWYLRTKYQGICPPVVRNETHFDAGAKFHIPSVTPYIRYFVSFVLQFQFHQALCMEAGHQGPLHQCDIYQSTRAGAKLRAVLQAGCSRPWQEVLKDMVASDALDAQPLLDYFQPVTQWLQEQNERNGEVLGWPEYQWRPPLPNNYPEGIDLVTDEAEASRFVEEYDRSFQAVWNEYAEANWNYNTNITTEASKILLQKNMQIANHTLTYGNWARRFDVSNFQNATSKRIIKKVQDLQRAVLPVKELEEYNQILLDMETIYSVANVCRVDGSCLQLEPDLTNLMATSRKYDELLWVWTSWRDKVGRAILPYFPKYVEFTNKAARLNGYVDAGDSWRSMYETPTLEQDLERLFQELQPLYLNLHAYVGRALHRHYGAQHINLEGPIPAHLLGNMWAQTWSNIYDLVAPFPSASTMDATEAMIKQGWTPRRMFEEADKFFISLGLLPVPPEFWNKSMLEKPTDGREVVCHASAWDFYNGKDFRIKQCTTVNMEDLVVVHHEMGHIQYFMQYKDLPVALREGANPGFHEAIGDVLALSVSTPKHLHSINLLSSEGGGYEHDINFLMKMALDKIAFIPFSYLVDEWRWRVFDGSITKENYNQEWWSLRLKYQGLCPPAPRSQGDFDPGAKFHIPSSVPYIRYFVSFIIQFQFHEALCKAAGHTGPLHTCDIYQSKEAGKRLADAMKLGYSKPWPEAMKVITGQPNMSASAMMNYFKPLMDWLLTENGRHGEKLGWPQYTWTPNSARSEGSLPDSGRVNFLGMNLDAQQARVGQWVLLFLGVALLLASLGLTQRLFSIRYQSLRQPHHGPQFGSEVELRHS

Mu-type opioid receptor = Mu-type opioid receptor (Homo sapiens, UniProt P35372); assay: DRUGMATRIX: Opiate mu (OP3, MOP) radioligand binding (ligand: [3H] Diprenorphine); format: cell membranes, CHO-K1, Membrane; details: cho-k1; Not Active = under 50% inhibition at 10 µM
Chain of Mu-type opioid receptor (P35372 whole entry): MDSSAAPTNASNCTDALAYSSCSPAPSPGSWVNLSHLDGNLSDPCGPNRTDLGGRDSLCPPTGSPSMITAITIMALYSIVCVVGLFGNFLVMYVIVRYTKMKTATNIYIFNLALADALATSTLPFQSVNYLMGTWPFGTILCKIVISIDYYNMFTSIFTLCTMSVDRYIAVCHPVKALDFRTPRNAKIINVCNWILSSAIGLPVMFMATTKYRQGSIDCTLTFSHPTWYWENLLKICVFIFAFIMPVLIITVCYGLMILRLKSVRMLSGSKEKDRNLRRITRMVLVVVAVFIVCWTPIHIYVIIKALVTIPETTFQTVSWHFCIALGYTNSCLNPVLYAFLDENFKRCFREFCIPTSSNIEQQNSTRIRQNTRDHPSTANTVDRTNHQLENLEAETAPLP

Chain of Vasopressin V1a receptor (P37288 whole entry): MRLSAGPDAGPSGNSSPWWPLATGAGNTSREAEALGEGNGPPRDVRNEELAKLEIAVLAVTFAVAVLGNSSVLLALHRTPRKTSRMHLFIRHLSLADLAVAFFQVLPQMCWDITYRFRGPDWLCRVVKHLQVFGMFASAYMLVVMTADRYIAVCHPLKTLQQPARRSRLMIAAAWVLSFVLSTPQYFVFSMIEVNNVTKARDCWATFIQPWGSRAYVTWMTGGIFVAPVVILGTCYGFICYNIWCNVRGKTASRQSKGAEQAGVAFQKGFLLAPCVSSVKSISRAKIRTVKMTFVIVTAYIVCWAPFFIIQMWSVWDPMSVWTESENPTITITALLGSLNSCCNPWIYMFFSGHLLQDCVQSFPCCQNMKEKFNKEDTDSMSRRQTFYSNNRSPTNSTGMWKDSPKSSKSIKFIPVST

Nc1nc2c(ncn2COC(CO)CO)c(=O)[nH]1 [GANCICLOVIR]
Not Active: IC50 [1] | Ki [1] | IC50 (Vasopressin V1a receptor) | IC50 [2] | IC50 [3] | IC50 (Endothelin-1 receptor) | IC50 [4] | IC50 (Mu-type opioid receptor)

COc1c(N2CCNC(C)C2)c(F)cc2c(=O)c(C(=O)O)cn(C3CC3)c12 (stereo not drawn) [GATIFLOXACIN]
Not Active: IC50 [1] | Ki [1] | IC50 (Vasopressin V1a receptor) | IC50 [2] | IC50 [3] | IC50 (Endothelin-1 receptor) | IC50 [4] | IC50 (Mu-type opioid receptor)

NCC(=O)O [GLYCINE]
Not Active: IC50 [1] | Ki [1] | IC50 (Vasopressin V1a receptor) | IC50 [2] | IC50 [3] | IC50 (Endothelin-1 receptor) | IC50 [4] | IC50 (Mu-type opioid receptor)

CC1(C)[C@@H](O[C@H]2O[C@H](C(=O)O)[C@@H](O)[C@H](O)[C@H]2O[C@@H]2O[C@H](C(=O)O)[C@@H](O)[C@H](O)[C@H]2O)CC[C@]2(C)[C@H]3C(=O)C=C4[C@@H]5C[C@@](C)(C(=O)O)CC[C@]5(C)CC[C@@]4(C)[C@]3(C)CC[C@@H]12 [GLYCYRRHIZIN]
Not Active: IC50 [1] | Ki [1] | IC50 (Vasopressin V1a receptor) | IC50 [2] | IC50 [3] | IC50 (Endothelin-1 receptor) | IC50 [4] | IC50 (Mu-type opioid receptor)

COC1=CC(=O)C[C@@H](C)[C@]12Oc1c(Cl)c(OC)cc(OC)c1C2=O [GRISEOFULVIN]
Not Active: IC50 [1] | Ki [1] | IC50 (Vasopressin V1a receptor) | IC50 [2] | IC50 [3] | IC50 (Endothelin-1 receptor) | IC50 [4] | IC50 (Mu-type opioid receptor)

C/C=C1\[C@H]2C=C(C)C[C@]1(N)c1ccc(=O)[nH]c1C2 [HUPERZINE A]
Not Active: IC50 [1] | Ki [1] | IC50 (Vasopressin V1a receptor) | IC50 [2] | IC50 [3] | IC50 (Endothelin-1 receptor) | IC50 [4] | IC50 (Mu-type opioid receptor)

NS(=O)(=O)c1cc2c(cc1Cl)NCNS2(=O)=O [HYDROCHLOROTHIAZIDE]
Not Active: IC50 [1] | Ki [1] | IC50 (Vasopressin V1a receptor) | IC50 [2] | IC50 [3] | IC50 (Endothelin-1 receptor) | IC50 [4] | IC50 (Mu-type opioid receptor)

O=P1(NCCCl)OCCCN1CCCl (stereo not drawn) [IFOSFAMIDE]
Not Active: IC50 [1] | Ki [1] | IC50 (Vasopressin V1a receptor) | IC50 [2] | IC50 [3] | IC50 (Endothelin-1 receptor) | IC50 [4] | IC50 (Mu-type opioid receptor)

CN1CCC[C@H]1c1cccnc1 [NICOTINE]
Not Active: IC50 [1] | Ki [1] | IC50 (Vasopressin V1a receptor) | IC50 [2] | IC50 [3] | IC50 (Endothelin-1 receptor) | IC50 [4] | IC50 (Mu-type opioid receptor)

O=C1CN=C(c2ccccc2)c2cc([N+](=O)[O-])ccc2N1 [NITRAZEPAM]
Not Active: IC50 [1] | Ki [1] | IC50 (Vasopressin V1a receptor) | IC50 [2] | IC50 [3] | IC50 (Endothelin-1 receptor) | IC50 [4] | IC50 (Mu-type opioid receptor)

CNCCC=C1c2ccccc2CCc2ccccc21 [NORTRIPTYLINE]
Not Active: IC50 [1] | Ki [1] | IC50 (Vasopressin V1a receptor) | IC50 [2] | IC50 [3] | IC50 (Endothelin-1 receptor) | IC50 [4] | IC50 (Mu-type opioid receptor)

CC1COc2c(N3CCN(C)CC3)c(F)cc3c(=O)c(C(=O)O)cn1c23 (stereo not drawn) [OFLOXACIN]
Not Active: IC50 [1] | Ki [1] | IC50 (Vasopressin V1a receptor) | IC50 [2] | IC50 [3] | IC50 (Endothelin-1 receptor) | IC50 [4] | IC50 (Mu-type opioid receptor)

Oc1cccc2cccnc12 [OXYQUINOLINE]
Not Active: IC50 [1] | Ki [1] | IC50 (Vasopressin V1a receptor) | IC50 [2] | IC50 [3] | IC50 (Endothelin-1 receptor) | IC50 [4] | IC50 (Mu-type opioid receptor)

CN(C)[C@@H]1C(O)=C(C(N)=O)C(=O)[C@@]2(O)C(O)=C3C(=O)c4c(O)cccc4[C@@](C)(O)[C@H]3[C@H](O)[C@@H]12 [OXYTETRACYCLINE]
Not Active: IC50 [1] | Ki [1] | IC50 (Vasopressin V1a receptor) | IC50 [2] | IC50 [3] | IC50 (Endothelin-1 receptor) | IC50 [4] | IC50 (Mu-type opioid receptor)

Fc1ccc([C@@H]2CCNC[C@H]2COc2ccc3c(c2)OCO3)cc1 [PAROXETINE]
Not Active: IC50 [1] | Ki [1] | IC50 (Vasopressin V1a receptor) | IC50 [2] | IC50 [3] | IC50 (Endothelin-1 receptor) | IC50 [4] | IC50 (Mu-type opioid receptor)

CC(C)(S)[C@@H](N)C(=O)O [PENICILLAMINE]
Not Active: IC50 [1] | Ki [1] | IC50 (Vasopressin V1a receptor) | IC50 [2] | IC50 [3] | IC50 (Endothelin-1 receptor) | IC50 [4] | IC50 (Mu-type opioid receptor)
